Data published in patent US10835624B2, “Compounds for imaging Tau protein aggregates” (AC IMMUNE S.A., priority 2016, dated 2020).
Values joined by “and” are separate entries in the source; they are usually repeats but may differ in a detail not shown here. Identical values can stand only once. Like-named read-outs stand apart in the source and are kept apart here.

Columns and labels:
[1] = target: Tau (Homo sapiens, UniProt P10636); assay: Tau competition binding in human AD brain homogenate with 18F-labeled Tau binder; settings: for Binding affinity for Tau (in words): IC50 determined in AD brain homogenate, compared with 3a
Chain of Tau (P10636 623-708 limits assumed): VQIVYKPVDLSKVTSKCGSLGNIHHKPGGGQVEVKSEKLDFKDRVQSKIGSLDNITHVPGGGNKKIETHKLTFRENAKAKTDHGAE
Procedure: (§1) 20 μg of human Alzheimer disease brain homogenate was incubated with a dilution series of each test compound (1000 to 0.06 nM) in the presence of 800 Bq of ^18F-labeled Tau binder. The samples were shaken at 110 rpm for 45 min at 37° C. Samples were then filtered through GF/B 96 well filter plates and washed twice with 300 μL assay buffer (PBS containing 0.1% BSA and 2% DMSO). Thereafter, filter plates were sealed and a Fuji Film Imaging Plate (BAS-SR2025) was placed on top. The imaging plate was analyzed after overnight exposition using a Fuji Film BAS-5000. Non-specific signal was determined with samples containing ^18F-labeled Tau-reference binder in the presence of assay buffer without brain substrate and competitor. […] The unblocked ^18F-labeled Tau-binder signal was defined as total binding. IC50 values were calculated by Prism V6 (GraphPad) setting total binding to 100%.

[2] = PK studies in healthy mice (PET); format: in vivo, NMRI mice; settings: 18F tracer; for Mouse PK De-fluorination: bone uptake, footnote f: no de-fluorination detected; for Mouse PK Uptake: brain; for Mouse PK Washout: ratio of uptake peak/30 min
Procedure: NMRI mice (weight range 25-35 g) were injected intravenously with the ^18F-labeled compounds. Up to 150 μL of 1×PBS solution with 10%-15% EtOH or dilution medium ([…]) containing the ^18F-labeled compound (2-10 MBq) were injected. Anesthesia with isoflurane was induced before injection of the tracer and maintained during the image acquisition period. PET scans were performed using a SIEMENS INVEON small animal PET/CT scanner (Siemens, Knoxville, Tenn.). PET acquisition was started immediately before the radioactive dose was injected into the animal through the tail vein. Images were generated as dynamic scans for 60 minutes.
The peak uptake in the brain was set to 100% and washout curves were generated to evaluate the clearance of the activity from the normal brain (FIG. 2).

[3] = target: T1, MAO A (Mus musculus, UniProt Q64133); assay: MAO A 18F-FEH competition assay in mouse brain homogenate; format: binding; settings: for Selectivity over MAO A (in words): compared with 3a
T1 construct: from tissue; host or cells: whole mouse brain homogenate
T1 sequence (Q64133 1-526): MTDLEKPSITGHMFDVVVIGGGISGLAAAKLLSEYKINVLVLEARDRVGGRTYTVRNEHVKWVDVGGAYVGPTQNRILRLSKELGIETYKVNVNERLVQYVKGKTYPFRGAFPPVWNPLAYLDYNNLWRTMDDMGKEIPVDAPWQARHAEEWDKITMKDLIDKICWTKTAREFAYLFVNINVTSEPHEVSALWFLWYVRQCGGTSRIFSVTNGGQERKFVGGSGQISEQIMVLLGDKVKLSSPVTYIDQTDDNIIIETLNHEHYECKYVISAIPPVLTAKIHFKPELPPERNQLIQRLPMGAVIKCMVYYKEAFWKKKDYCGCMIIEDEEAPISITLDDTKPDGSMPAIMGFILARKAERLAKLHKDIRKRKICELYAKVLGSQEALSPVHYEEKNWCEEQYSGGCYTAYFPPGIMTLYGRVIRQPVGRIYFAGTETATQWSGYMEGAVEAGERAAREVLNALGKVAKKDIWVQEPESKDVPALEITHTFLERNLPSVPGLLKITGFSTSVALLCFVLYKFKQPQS

[4] = target: amyloid-beta (Homo sapiens, UniProt P05067); assay: Binding affinity to amyloid-beta in AD brain homogenate; settings: human AD brain homogenate; non-radioactive derivatives
Chain of amyloid-beta (P05067 672-711 limits assumed): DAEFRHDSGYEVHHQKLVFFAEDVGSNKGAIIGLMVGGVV
Procedure: as §1, with “beta-amyloid” for “Tau”, “beta-amyloid” for “Tau-reference”, “beta-amyloid binder” for “Tau-binder”

[5] = target: T2, MAO A (Homo sapiens, UniProt P21397); assay: MAO A FEH competition assay in human HC brain homogenate; format: binding; settings: human healthy control brain homogenate; FEH competition
T2 construct: 20 μg of human brain homogenate (without AD pathology); from tissue; host or cells: human brain homogenate without AD pathology (healthy control)
T2 sequence (P21397 1-527): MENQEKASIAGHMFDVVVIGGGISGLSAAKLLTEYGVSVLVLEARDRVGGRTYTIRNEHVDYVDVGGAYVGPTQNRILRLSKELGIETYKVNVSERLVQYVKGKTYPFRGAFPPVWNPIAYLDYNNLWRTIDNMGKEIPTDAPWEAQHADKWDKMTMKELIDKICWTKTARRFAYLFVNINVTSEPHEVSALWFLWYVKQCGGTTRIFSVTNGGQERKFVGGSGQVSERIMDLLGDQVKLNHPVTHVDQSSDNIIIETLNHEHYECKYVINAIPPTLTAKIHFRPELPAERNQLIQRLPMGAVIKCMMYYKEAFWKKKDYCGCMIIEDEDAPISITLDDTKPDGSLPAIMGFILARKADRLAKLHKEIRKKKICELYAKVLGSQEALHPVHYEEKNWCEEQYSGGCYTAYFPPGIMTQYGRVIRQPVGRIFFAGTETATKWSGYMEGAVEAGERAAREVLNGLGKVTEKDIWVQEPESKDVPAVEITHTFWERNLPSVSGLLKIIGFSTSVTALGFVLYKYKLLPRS
Procedure: as §1, with “human” for “human Alzheimer disease”, “homogenate (without AD pathology)” for “homogenate”, “MAO-A binder ([^18F]fluoroethyl harmine, FEH).” for “Tau binder.”, “FEH” for “Tau-reference binder”, “FEH” for “Tau-binder”

[6] = target: T3, MAO B (Homo sapiens, UniProt P27338); assay: MAO B 18F-fluoro deprenyl competition assay in human HC brain homogenate; format: binding
T3 construct: 20 μg of human brain homogenate (without AD pathology); from tissue; host or cells: human brain homogenate without AD pathology (healthy control)
T3 sequence (P27338 1-520): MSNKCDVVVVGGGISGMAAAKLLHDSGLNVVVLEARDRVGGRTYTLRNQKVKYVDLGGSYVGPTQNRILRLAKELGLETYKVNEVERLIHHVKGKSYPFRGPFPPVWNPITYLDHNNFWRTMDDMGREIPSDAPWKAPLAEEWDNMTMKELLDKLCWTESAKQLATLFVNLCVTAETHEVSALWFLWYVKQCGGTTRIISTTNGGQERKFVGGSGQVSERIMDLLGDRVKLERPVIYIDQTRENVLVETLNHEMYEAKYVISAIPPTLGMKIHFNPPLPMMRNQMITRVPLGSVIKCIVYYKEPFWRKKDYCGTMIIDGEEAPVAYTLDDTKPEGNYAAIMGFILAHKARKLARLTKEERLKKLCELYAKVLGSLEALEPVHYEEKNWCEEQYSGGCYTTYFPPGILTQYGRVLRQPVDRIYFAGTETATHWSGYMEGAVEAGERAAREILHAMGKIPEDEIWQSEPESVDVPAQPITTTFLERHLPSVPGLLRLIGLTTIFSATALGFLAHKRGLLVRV
Procedure: The samples were shaken at 110 rpm for 45 min at 37° C. Samples were then filtered through GF/B 96 well filter plates and washed twice with 300 μL assay buffer (PBS containing 0.1% BSA and 2% DMSO). Thereafter, filter plates were sealed and a Fuji Film Imaging Plate (BAS-SR2025) was placed on top. The imaging plate was analyzed after overnight exposition using a Fuji Film BAS-5000. […] IC50 values were calculated by Prism V6 (GraphPad) setting total binding to 100%.

[7] = IC50 in AD brain homogenate, non-radioactive fluorine-19 derivatives, read-out: high Tau binding
[8] = IC50 in mouse brain homogenate, fluorine-19 derivatives, read-out: low MAO A binding
[9] = grade, IC50 in mouse brain homogenate, fluorine-19 derivatives, read-out: low MAO A binding
[10] = grade, AD brain homogenate, non-radioactive fluorine-19 derivatives, read-out: high Tau binding
[11] = human AD brain homogenate, determined with non-radioactive F-1, F-2, F-3a, read-out: IC50 for tau binding in AD brain homogenate
[12] = 18F-FEH competition, non-radioactive derivatives, read-out: IC50 MAO A in mouse brain homogenate

SMILES | Binding affinity for Tau (in words) [1] | IC50 [1, 7] [nM] | Mouse PK De-fluorination [2] | Mouse PK Uptake [2] | Mouse PK Washout [2] | IC50 [3, 8] [nM] | IC50 [3, 9] [nM] | IC50 [1, 10] [nM] | Selectivity over MAO A (in words) [3] | IC50 [4] [nM] | IC50 [1, 11] [nM] | IC50 [3, 12] [nM] | IC50 [5] | IC50 [6] [nM] | IC50 ([3]; low MAO A binding [nM], IC50 in mouse brain homogenate, fluorine-19 derivatives) [nM] | IC50 ([3]; low MAO A binding, grade, IC50 in mouse brain homogenate, fluorine-19 derivatives) [nM]
Fc1cncc(-c2ccc3c(n2)[nH]c2ccncc23)c1 [Example F-5] | inferior | 6.3 | (2.9% ID/g) | (5.3% ID/g) | (9.6) | > 1000 | > 1000 |  |  |  |  |  |  |  |  | 
Fc1ccncc1-c1ccc2c(n1)[nH]c1ccncc12 [Example F-6] | poor | 43 | (4.8% ID/g) | (8.2% ID/g) | (14.5) | > 1000 | > 1000 |  |  |  |  |  |  |  |  | 
Fc1ccc(-c2ccc3c(n2)[nH]c2ccncc23)nc1 [Example F-8] |  | < 5 |  |  |  | 75 |  | < 5 | Inferior |  |  |  |  |  |  | 
Fc1cc(-c2ccc3c(n2)[nH]c2ccncc23)ccn1 [Example F-3a] |  | < 5 | (<0.5% ID/g)^f | (4.4-5.9% ID/g) ^ | (11.2-16.6) | > 1000 | > 1000 | < 5 |  | > 1000 | < 2 | 1400 | 1100 nM and 530 nM |  |  | 
Fc1cnccc1-c1ccc2c(n1)[nH]c1ccncc12 [Example F-3b] |  | < 5 |  | (4.0% ID/g) | (19.4) | 765 |  | < 5 |  |  |  |  |  |  |  | 
Fc1ccc(-c2ccc3c(n2)[nH]c2ccncc23)cn1 [Example F-2] |  | < 5 | (6.2% ID/g) | (5.7% ID/g) | (10.9) |  |  | < 5 | Inferior | > 1000 | < 2 | 475 | 100 nM |  |  | 
Fc1ccc(-c2ccc3c(c2)[nH]c2ccncc23)cn1 [Example F-1] |  |  |  |  |  |  |  |  |  | > 1000 | < 2 | 22 | 5 nM | 170 |  | 
Fc1ccnc(-c2ccc3c(n2)[nH]c2ccncc23)c1 [Example F-9] | inferior | 8.4 |  |  |  | > 1000 | > 1000 |  |  |  |  |  |  |  |  | 
Fc1cccc(-c2ccc3c(n2)[nH]c2ccncc23)n1 [Example F-7] | inferior | 7.1 | (11.1% ID/g) | (8.5% ID/g) | (7.0) | 268 |  |  | Inferior |  |  |  |  |  |  | 
Fc1cccnc1-c1ccc2c(n1)[nH]c1ccncc12 [Example F-10] | poor | 103 | (6.2% ID/g) | (2.1% ID/g) | (3.6) |  |  |  |  |  |  |  |  |  | > 1000 | > 1000
